Assay results taken from patent publication US20230115335A1, “PYRAZOLE DERIVATIVES WITH ANTICANCER ACTIVITY” (BOARD OF REGENTS, THE UNIVERSITY OF TEXAS SYSTEM, priority 2021, published 2023).
Entries after “also recorded” stand apart in the source; their conditions may differ. Where two headings read alike, the source gives them in different places.

Tests used:
[1] = system: CEM cell line; assay: DNS cytotoxicity assay, CEM; assay type: cell-based, human
From the text: […] […] After treatment, images were acquired and analyzed to determine percentages of live/dead cells and their cytotoxicity. […] The Hs-27 non-cancerous human foreskin fibroblast cell line was used for comparison purposes.

[2] = system: CEM cells; assay: Generation of Reactive Oxygen Species; assay type: cell-based, human; settings: CC50 and 2×CC50
[3] = system: HL-60 leukemia cell line; assay: Apoptosis induction in HL-60; assay type: cell-based
[4] = system: CEM cells; assay: Mode of cell death: intrinsic apoptosis pathway; assay type: cell-based, human
Description: (§1) FIG. 2A-2C. […] CEM cells were treated at the CC50 and twice (2×) that concentration of SSK-3.
These compounds were tested in mice at a concentration of 160 mg/kg and after 3-4 daily doses, animals tolerated the treatments well. Different cytotoxicity patterns of the compounds against distinct cell lines has been noted, and it is therefore possible that distinct pyrazoles will act on distinct cellular effectors with different modes of action. However, all of the pyrazole compounds so far tested including SSK-3 induce cell death via the intrinsic apoptosis pathway as will be described below.

[5] = system: MDA-MB231; assay: DNS cytotoxicity assay, MDA-MB-231; assay type: cell-based; settings: Homo sapiens
Description: (§2) Since the non-adherent (free floating) lymphoma/leukemia cell lines divide faster than the adherent cell lines, they were incubated for a shorter period (48 h) of time with the compound.
(§3) Lymphoma/leukemia cell lines, which grow in suspension, were incubated for 48 h with the compounds. […] After treatment, images were acquired and analyzed to determine percentages of live/dead cells and their cytotoxicity. […] The Hs-27 non-cancerous human foreskin fibroblast cell line was used for comparison purposes.

[6] = system: Z138; assay: DNS cytotoxicity assay, Z138; assay type: cell-based; settings: Homo sapiens, Z-138; Mantle cell Lymphoma; 48 or 72 hrs
From the text: (§4) Using the high throughput Differential Nuclear Staining (DNS) screening assay (Lema et al., Current Cellular Biochemistry 1, 1-14, 2011) 15 pyrazole compounds were synthesized and screened on the human T-cell Acute Lymphoblastic Leukemia CEM cell line (Tables 1 and 2). […] The compounds were synthesized based on a pyrazole backbone structure previously determined to have potent cytotoxic activity (FIG. 5). Several commercial and non-commercial analogues (see Table 3) have been tested and determined that the ones with highest activity have a similar structure circled in FIG. 5. […] SSK-3 has been tested on a few cancer cell lines (see Table 4) and also found to induce programmed cell death via a variety of biochemical assays. […] Since the non-adherent (free floating) lymphoma/leukemia cell lines divide faster than the adherent cell lines, they were incubated for a shorter period (48 h) of time with the compound.
(§5) SSK-3 has potent cytotoxic activity against a panel of human cancer cell lines. The cytotoxic activity of SSK-3 was examined by the DNS assay (Lema et al., Current Cellular Biochemistry 1, 1-14, 2011). Lymphoma/leukemia cell lines, which grow in suspension, were incubated for 48 h with the compounds. […] After treatment, images were acquired and analyzed to determine percentages of live/dead cells and their cytotoxicity. […]

[7] = system: T47D; assay: DNS cytotoxicity assay, T47D; assay type: cell-based; settings: Homo sapiens, Breat Cancer, 72 hrs
From the text: as §4, §5

[8] = system: Jeko-1; assay: DNS cytotoxicity assay, Jeko-1; assay type: cell-based; settings: Homo sapiens, Mantle cell Lymphoma, 48 or 72 hrs
From the text: as §4, §5

[9] = system: Colo 205; assay: DNS cytotoxicity assay, Colo 205; assay type: cell-based; settings: Homo sapiens, Colon Cancer, 72 hrs
From the text: as §4, §5

[10] = system: CEM cells; assay: Phosphatidylserine externalization, Annexin V-FITC/PI assay; assay type: cell-based, human
Description: FIG. 1. […] CEM cells were treated at the CC50 and twice (2×) that concentration of SSK-3. Note that PS externalization is an early marker of apoptosis. * Indicates P value less than 0.001.
SSK-3 induces significant phosphatidylserine externalization. To corrobotate whether SSK-3 utilizes apoptosis to induce cell death, we measured phosphatidylserine (PS) externalization in SSK-3-treated CEM cells by using the Annexin V-FITC/PI assay (3, 4).

[11] = system: RPMI-8226; assay: DNS cytotoxicity assay, RPMI-8226; assay type: cell-based; settings: Homo sapiens, Multiple Myeloma, 48 or 72 hrs
From the text: as §4, §5

[12] = DNS cytotoxicity assay, HS-27 non-cancerous fibroblast; assay type: cell-based; settings: human, Hs-27 non-cancerous foreskin fibroblast cells
Description: as §2, §3

[13] = system: MM.1S; assay: DNS cytotoxicity assay, MM.1S; assay type: cell-based; settings: Homo sapiens, MM1.S; Multiple Myeloma; 48 or 72 hrs
From the text: as §4, §5

[14] = system: U226; assay: DNS cytotoxicity assay, U226; assay type: cell-based; settings: Homo sapiens, Multiple Myeloma, 48 or 72 hrs
From the text: as §4, §5

[15] = system: HCC1419; assay: DNS cytotoxicity assay, HCC1419; assay type: cell-based; settings: Homo sapiens, Breat Cancer, 72 hrs
From the text: as §4, §5

[16] = system: Jurkat; assay: DNS cytotoxicity assay, Jurkat; assay type: cell-based, human
From the text: as §4
SSK-3 has potent cytotoxic activity against a panel of human cancer cell lines. The cytotoxic activity of SSK-3 was examined by the DNS assay (Lema et al., Current Cellular Biochemistry 1, 1-14, 2011). Lymphoma/leukemia cell lines, which grow in suspension, were incubated for 48 h with the compounds. Since the adherent cells generally divide at a slower rate than the non-adherent cell lines, the MDA-MB231, HCC1419, T47D, COLO205, PANC-1, A-549 adherent cancer cells lines were incubated for 72 h in the presence of the compounds. After treatment, images were acquired and analyzed to determine percentages of live/dead cells and their cytotoxicity. […] The Hs-27 non-cancerous human foreskin fibroblast cell line was used for comparison purposes.

[17] = system: RAMOS; assay: DNS cytotoxicity assay, RAMOS; assay type: cell-based; settings: Homo sapiens, Lymphoma-Leukemia, 48 hrs
From the text: as §4, §5

[18] = system: MiNO; assay: DNS cytotoxicity assay, MiNO; assay type: cell-based; settings: Homo sapiens, Mantle cell Lymphoma, 48 or 72 hrs
From the text: as §4, §5

[19] = system: MDA-468; assay: DNS cytotoxicity assay, MDA-468; assay type: cell-based; settings: Homo sapiens; Breat Cancer; 72 hrs
From the text: as §4, §5

[20] = system: PANC-1; assay: DNS cytotoxicity assay, PANC-1; assay type: cell-based; settings: Homo sapiens, Pancreatic cancer, 72 hrs
From the text: as §4, §5

[21] = system: JVM-13; assay: DNS cytotoxicity assay, JVM-13; assay type: cell-based; settings: Homo sapiens, JVM13; Mantle cell Lymphoma; 48 or 72 hrs
From the text: as §4, §5

[22] = system: MM.1R; assay: DNS cytotoxicity assay, MM.1R; assay type: cell-based; settings: Homo sapiens, Multiple Myeloma, 48 or 72 hrs
From the text: as §4, §5

[23] = system: membrane microtubule organization; assay: Membrane microtubule organization; assay type: cell-based; settings: 2 hours; vs DMSO control
[24] = system: cell cycle; assay: Cell cycle arrest; assay type: cell-based; settings: data not shown
[25] = system: HL-60; assay: DNS cytotoxicity assay, HL-60; assay type: cell-based; settings: Homo sapiens, Lymphoma-Leukemia, 48 hrs
From the text: as §4, §5

[26] = system: NALM-6; assay: DNS cytotoxicity assay, NALM-6; assay type: cell-based; settings: Homo sapiens, Lymphoma-Leukemia, 48 hrs
From the text: as §4, §5

[27] = system: JVM-2; assay: DNS cytotoxicity assay, JVM-2; assay type: cell-based; settings: Homo sapiens, Mantle cell Lymphoma, 48 or 72 hrs
From the text: as §4, §5

[28] = system: Tubulin; assay: Tubulin polymerization, biochemical assays
[29] = system: caspase-3 in CEM cells; assay: Caspase-3 activation, NucView substrate, flow cytometry; assay type: cell-based, human; settings: 7 h, P<0.05 vs DMSO control
Description: as §1
(§6) SSK-3 induces caspase-3 activation. Mitochondrial depolarization is one of the salient features of cell-death induction and this was observed after treatment of CEM cells with SSK-3 (FIG. 2A). […] CEM cells were treated with SSK-3 for 7 h and subsequently stained with the NucView caspase-3 substrate and analyzed via flow cytometry (Gutierrez et al., Cell biology and toxicology 35, 503-19, 2019) (FIG. 2B).

[30] = system: K562; assay: DNS cytotoxicity assay, K562; assay type: cell-based; settings: Homo sapiens, Lymphoma-Leukemia, 48 hrs
From the text: as §4, §5

[31] = system: CEM cells; assay: Mitochondrial depolarization; assay type: cell-based, human; settings: CC50 and 2×CC50
Description: as §1, §6

[32] = DNS cytotoxicity assay, MCF10A; assay type: cell-based; settings: human, MCF10A non-cancerous cells, 72 hr incubations, read-out: Cell Line CC50 MCF10A*
Description: as §2

[33] = Homo sapiens, CCRF-CEM, Initial Screen, DNS assay, read-out: CEM CC50
[34] = Homo sapiens, CCRF-CEM, read-out: CEM CC50
[35] = 72 hr incubations, read-out: Cell Line CC50 MDA-MD-231*
[36] = 72 hr incubations, non-cancerous, read-out: Cell Line CC50 HS-27*

Compound: O=C(N/N=C/c1cn(-c2ccccc2)nc1-c1cc2ccccc2oc1=O)c1n[nH]c2c1CCC2 [SSK-12]
- CC50 [1, 33]: 8.25 ± 0.26 µM

Compound: Cc1ccc2c(c1)/C(=N/NC(=O)c1n[nH]c3c1CCC3)C(=O)N2 [SSK-3, N-(5-methyl-2-oxoindolin-3ylidene)-1,4,5,6-tetrahydrocyclopenta[c]pyrazole-3-carbohydrazide]
- Generation of Reactive Oxygen Species (ROS) [2]: led to the generation of Reactive Oxygen Species (ROS)
- induction of apoptosis [3]: induced apoptosis via mitochondrial depolarization and phosphatidylserine membrane exposure
- induction of the intrinsic apoptosis pathway [4]: induces the intrinsic apoptosis pathway
- CC50 ([5]; Table 4, Breat Cancer, 72 hrs, read-out: CC50 MDA-MB231): 2300 nM
- CC50 [6]: 3.36 µM
- CC50 [7]: 3.87 µM
- CC50 [8]: 1240 nM
- CC50 [9]: 2430 nM
- PS externalization ([10]; CC50 and 2×CC50 (0.24 and 0.48 μM printed), vs solvent control): induces significant PS externalization in a dose-response manner; also recorded: Induction of Phosphatidylserine (PS) externalization
- CC50 [11]: 2470 nM
- CC50 at 72 h ([12]; Table 4, Normal Fibroblast, 72 hrs, read-out: CC50 HS27): 15.4 µM
- CC50 [13]: 4.61 µM
- CC50 [14]: 4.44 µM
- CC50 [15]: > 20 µM
- times more cytotoxic toward Jurkat than HS27 ([16]; CC50 HS27 / CC50 Jurkat): 37 times
- CC50 ([16]; Homo sapiens, Jurkat, Lymphoma-Leukemia, 48 hrs): 420 nM
- CC50 [17]: 1650 nM
- CC50 [18]: 1070 nM
- CC50 [19]: 3.98 µM
- CC50 [20]: 1860 nM
- CC50 [21]: 790 nM
- CC50 [22]: 3.88 µM
- disruption of membrane microtubule organization [23]: severe disruption of membrane microtubule organization
- cell cycle arrest [24]: cause cell cycle arrest and interfere with cellular replication
- CC50 [25]: 750 nM
- CC50 [26]: 2040 nM
- CC50 [27]: 790 nM
- CC50 ([1]; Homo sapiens, CCRF-CEM, 48 h, Table 4, Lymphoma-Leukemia, 48 hrs, read-out: CC50 CEM): 1.4 µM
- CC50 ([1]; Initial Screen, DNS assay, read-out: CEM CC50): 1.39 ± 0.68 µM
- Tubulin polymerization inhibition [28]: inhibiting tubulin polymerization
- caspase-3 activation [29]: induced a statistically significant activation of caspase-3; also recorded: Activation of Caspase 3 was detected
- CC50 [30]: 2130 nM
- Mitochondrial depolarization [31]: Mitochondrial depolarization was observed

Compound: O=C(N/N=C1\C(=O)N(CN2CCCCC2)c2ccccc21)c1n[nH]c2c1CCC2 [SSK-6]
- CC50 [1, 34]: > 10 µM

Compound: O=C(N/N=C/c1cn(-c2ccccc2)nc1-c1ccccc1)c1n[nH]c2c1CCC2 [SSK-7]
- CC50 [1, 33]: 8.15 ± 0.23 µM

Compound: OO [H2O2, reference compound]
- percentage of PS externalization ([10]; positive control for death): ~78%

Compound: O=C(N/N=C1\C(=O)N(CN2CCOCC2)c2ccccc21)c1n[nH]c2c1CCC2 [SSK-5]
- CC50 [1, 34]: > 10 µM

Compound: O=C(N/N=C/c1cc(Br)cc(Br)c1O)c1n[nH]c2c1CCC2 [P3C.6]
- CC50 at 72 h [32]: 5.85 µM
- CC50 [5, 35]: 2530 nM
- CC50 at 72 h [12, 36]: 9.94 µM

Compound: O=C(N/N=C/c1ccc(OCc2cn(Cc3ccc([N+](=O)[O-])cc3)nn2)cc1)c1n[nH]c2c1CCC2 [SSK-15]
- CC50 [1, 33]: > 10 µM

Compound: O=C(N/N=C/c1cn(-c2ccccc2)nc1-c1ccc(Cl)cc1)c1n[nH]c2c1CCC2 [SSK-10]
- CC50 [1, 33]: 7.83 ± 0.13 µM

Compound: O=C(N/N=C/c1c(O)ccc2ccccc12)c1n[nH]c2c1CCCC2 [P3C.3]
- CC50 at 72 h [32]: 2.16 µM
- CC50 [5, 35]: 1610 nM
- CC50 at 72 h [12, 36]: > 10 µM

Compound: Cc1ccc(-c2nn(-c3ccccc3)cc2/C=N/NC(=O)c2n[nH]c3c2CCC3)cc1 [SSK-8]
- CC50 [1, 33]: 3.6 ± 0.16 µM
